In patent publication EP4506341A1, “TISSUE REGENERATION APPROACHES” (ZeCardio Therapeutics SL, priority 2023, dated 2025):

What was measured:
[1] = tested on: H9C2 cells; experiment: MTT proliferation assay in Tob1 expressing (control) H9C2 cells; format: cell-based, rat; details: for H9C2 % Proliferation (normalized to control): 4 microMolar, MTT assay after 144 hours, increase above control values; for EC50 in H9C2 cells lower than EC50 in Tob1 KO H9C2 cells (selectivity for Tob1): H9C2 control vs Tob1 KO H9C2 cells, MTT; for EC50: Rattus norvegicus, H9C2 control cells, proliferation by MTT, 144 hours, 1,28 nM to 20 µM
Experimental: (§1) 3-(4,5-dimethylthiazol-2-yl)-2,5-diphenyltetrazolium bromide, MTT (Sigma, M5655-500MG) assay was used as a surrogate to evaluate cell number and cell proliferation in H9C2 and MCF-7 cells. MTT is a colorimetric assay that measures cell metabolic activity in viable cells, resulting from the activity of mitochondrial dehydrogenases which cleave the tetrazolium ring of the yellow tetrazolium salt MTT, yielding formazan crystals. The protocol was designed to align Tob1 peak decrease in mRNA expression levels (48-96 hours post-transfection) with the period of exponential growth of the cells (24-72 hours post-replating).
MCF-7 cells and H9C2 cells were seeded at 100,000 cells/well in 24-well in DMEM + 10% FBS plates to reach 80-90% at time of transfection. MCF-7 and H9C2 cells were transfected 24 hours post-plating with Silencer® Select siRNAs to knock down Tob1. 48 hours post-transfection, cells were lifted and plated at 10000 (MCF-7) and 8000 cells/well (H9C2) in 96-well plates and grown for 144 hours. At day 6 (144 hours), 0,5 mg/ml MTT was added and incubated for 3 hours, producing formazan crystals that were solubilized with SDS 20%+ HCl 0.02N. 24 hours later, absorbance was measured at 590 nm with the spectrophotometer FLUOstar Omega plate reader (BMG LabTech).
(§2) Both Tob1 expressing and Tob1 knockout H9C2 cells were seeded at 8000 cells/well in 96-well plates. 48 hours later, cells were treated with 1.28 nM; 6.4 nM; 32 nM, 160nM, 800 nM, 4 µM and 20 µM ZXR-807, ZXR-810; ZXR-081 and ZXR-090 and cell proliferation was measured 144 hours post-treatment using the MTT assay as described above.
Once lead compounds were selected, their efficacy, potency and selectivity at promoting proliferative responses, were evaluated in vitro in rat cardiomyoblasts (H9C2 cells) using MTT assay. H9C2 cells were treated with vehicle 0,3% DMSO and increasing concentrations of Tob1 inhibitors: ZXR-807, ZXR-810, ZXR-081 and ZXR-090, (1,28 nM to 20 µM), followed by the assessment of proliferation, using the MTT assay, after cells were left to grow for 144 hours (6 Days).

[2] = tested on: Tob1 KO H9C2 cells; experiment: MTT proliferation assay in Tob1 knockout H9C2 cells; format: cell-based; details: Rattus norvegicus; Tob1 depleted (KO) H9C2 cells; proliferation by MTT, 144 hours
Experimental: 100.000 H9C2 cells were plated in a 24 well plate day before transfection with lipofectamine CRISPRMAX™ (Thermofisher, CMAX00001), to obtain a 70% of confluence. The CRISPRMAX™ assay was performed following the manufacturer's instructions. Briefly Cas9 nuclease/gRNA RNP complexes were prepared by combining the following components , 3,85 µ! of 2 µM Alt-R S.p. Cas9 Nuclease v3 (1081059, IDT)1; 2,25 µ! of 2 µM sgRNAs (Tob1 sgRNA1: […] (SEQ ID NO: 3) and Tob1 sgRNA2: […] (SEQ ID NO: 4), negative control: GCACUACCAGAGCUAA (SEQ ID NO: 5), Synthego), 2,5 µ! Cas9 plus reagent in 16,65 µl Opti-MEM™(Gibco™; Life Technologies, Grand Island, NY, USA) in tube 1 and 1,5 µl lipofectamine CRISPRMAX™ in 25 µ! in Opti-MEM™ in tube 2. The Cas9/sgRNA ribonucleoprotein (RNP) complex was obtained by incubating the mix of tub1 and 2 for 10 minutes at room temperature. 50 µL of the RNP complex was added to cells in 450 µL of fresh high glucose DMEM (ATCC, 30-2002), supplemented with 10 % FBS and without antibiotics and cells were incubated with the RNP complex for 48 h at 37 °C.
as §1
MCF-7 cells and H9C2 cells were seeded at 100,000 cells/well in 24-well in DMEM + 10% FBS plates to reach 80-90% at time of transfection. MCF-7 and H9C2 cells were transfected 24 hours post-plating with Silencer® Select siRNAs to knock down Tob1. 48 hours post-transfection, cells were lifted and plated at 10000 (MCF-7) and 8000 cells/well (H9C2) in 96-well plates and grown for 144 hours. […] 24 hours later, absorbance was measured at 590 nm with the spectrophotometer FLUOstar Omega plate reader (BMG LabTech).
as §2
Tob1 inhibitors selectivity was assessed by comparing dose-responses of ZXR-807, ZXR-810, ZXR-081 and ZXR-090 in H9C2 control cells and H9C2 Tob1 KO cells where Tob1 was depleted by CRISPR/Cas9 technology. […]

[3] = tested on: Cdk1; experiment: Real time PCR of proliferation marker gene Cdk1 in H9C2 cells; format: cell-based, rat; details: 100 nM in H9C2 cells; for Cdk1 mRNA expression increase: normalized to vehicle-treated cells
Experimental: (§3) In order to evaluate 1) efficiency of Tob1 knockdown in MCF-7 and H9C2 cells and 2) expression levels of proliferation markers (Pcna, Cdk1 and Ccnb1) in H9C2 cells treated with the compounds of the invention, H9C2 cells were harvested by trypsinization and centrifuged at 300 x g for 5 min. Total mRNA was isolated using the Maxwell 16 LEV simplyRNA Cells Kit or Tissue Kit (Promega, Madison, WI) following the manufacturer's instructions. Nanodrop ND-1000 Spectrophotometer (Thermo Fisher Scientific, Waltham, MA) was used to quantity the amount of RNA extracted. cDNA synthesis was performed from 300 ng of total RNA with the SuperScript IV First-Strand Synthesis System (Thermo Fisher Scientific, Waltham, MA).
(§4) Real-time PCR was conducted using LightCycler 480 SYBR Green I Master on a LightCycler 480 thermal cycler (Roche, Basel, Switzerland). The expression levels of the indicated genes were calculated by the conventional 2^-DDCt method, with normalization to housekeeping gene glyceraldehyde-3-phosphate dehydrogenase (GAPDH).

[4] = tested on: Ccnb1; experiment: Real time PCR of proliferation marker gene Ccnb1 in H9C2 cells; format: cell-based, rat; details: 100 nM in H9C2 cells
Experimental: as §3, §4

[5] = tested on: hiPSC cardiomyocytes; experiment: CellTiter-Glo proliferation assay in hiPSC-CMs; format: cell-based, Human; details: 8nM
Experimental: Human Induced pluripotent stem-cell derived (iPS-CMs) cardiomyocytes (iCell® Cardiomyocytes, Cat. No. 11713) were purchased from FUJIFILM Cellular Dynamics. hiPSC Cardiomyocytes were seeded into 96 well plates coated with 0,1% gelatin (STEMCELL tech, 07903) with iCell Cardiomyocytes plating medium (Fujifilm, M1001). After 48 hours, the medium was changed to iCell Cardiomyocytes maintenance medium (Fujifilm, M1003) and cells were cultured for 2 weeks with media replacement every 48-72 hours. Cells were maintained in a humidified incubator (Thermo Scientific,HERACELL 150i) in a 95% air 5% CO2 environment at 37 °C
CellTitler-Glo® (Promega, G7570) was used to measure the activity of the compounds of the invention in triggering proliferation in hiPSC-CMs. The CellTiter-Glo® Luminescent Cell Viability Assay, similar to the MTT assay but with higher sensitivity, determines the number of metabolically active and viable cells, and is based on the quantification of ATP levels in the cells.
hiPSC-CMs were seeded at 7000 cells/well in 96-well plates and treated with the compounds of the invention at 8; 40 and 200nM in a 0.3% DMSO containing iCell Cardiomyocyte medium and a control treatment or vehicle with 0.3% DMSO in iCell cardiomyocyte medium. hiPSC-CMs proliferation was measured after 144h (6 days) , and 336 (14 days) of treatment. At each time point, 100 µL of CellTiter Glo (ratio 1:1 CellTiter Glo: cell culture medium ) was added to each well containing 100 µL iCell Cardiomyocyte medium, following the manufacturer's instructions. Luminescence was read in Varioskan (Thermo Fisher Scientific), 30 minutes after adding the reagent.

[6] = tested on: Ki67; experiment: Nuclear Ki67 immunostaining in hiPSC-CMs after migration assay; format: cell-based, Human; details: 8 nM, 144 hrs, hiPSC cardiomyocytes
Experimental: (§5) hiPSC-CMs cells were seeded at 25,000 cells per well in 96 wells plates. 168 hours after seeding, cells were scraped with a 200 µL tip and treated with 8, 40 and 200nM ZXR-807, ZXR-810, ZXR-081 and ZXR-090. Plates were imaged with an inverted microscope (Leica, DMI6000B) right after generating the wound (0 h) and 144 hours post-scraping.
Following the migration assay, the medium was aspirated from the 96-well plates, and cells were washed twice with phosphate buffered saline solution (PBS) 1x (Fisher bioreagents, BP399-4). Cells were fixed with 4% paraformaldehyde (Sigma, 158127) for 10 minutes at room temperature and washed 3 times with PBS 1x. Cells were permeabilized with Triton™ X-100, 0.03% (Merck, T8787) and blocked with 0.5% Goat serum (ThermoFisher, 16210064) in PBS 1x, during 1 hour at room temperature. The primary antibodies Ki67 rabbit antibody 1/100 (Santacruz, sc-23900), and cardiac Troponin (cTnT mouse antibody 1/100 (ThermoFisher, MA5-12960) were diluted in the following buffer: Triton™ X-100 0.03% and 1% Bovine serum albumin (BSA) 10% (nzytech, MB04602) and PBS 1x. hiPSC-CMs were incubated with the primary antibodies overnight at 4°C, washed three times with PBS 1x and incubated with the secondary antibodies goat anti-mouse or anti -rabbit coupled to Alexa fluorescent dyes (company). DAPI 1/1000 (Merck, D9542-5MG) was incubated for 20 min at room temperature to visualize nuclei. Cells were washed out 3x with PBS and kept in PBS at 4°C.
Preparations were examined on a fluorescent inverted microscope Leica, DMI6000B using 20x dry objectives from Leica. Images were analyzed with the open source image processing package Fiji to quantify Nuclear Ki67 fluorescent intensity and cellular cardiac troponin T (cTnT) normalized to the number of nuclei in the field of view

[7] = tested on: hiPSC cardiomyocytes; experiment: Cell migration (wound healing) assay in hiPSC-CMs; format: cell-based, Human; details: 8 nM, 144 hours
Experimental: as §5
All images were analyzed using the Fiji software (Schindelin et al., 2012) and the amount of cellular migration was determined by calculating the wound area at 0h and 28 hours or 144 hours and normalized to control vehicle-treated cells (0,3% DMSO).

Row | SMILES | H9C2 % Proliferation (normalized to control) [1] | EC50 in H9C2 cells lower than EC50 in Tob1 KO H9C2 cells (selectivity for Tob1) [1] | EC50 [2] [nM] | transcriptional activation of Cdk1 (in words) [3] | Ccnb1 expression (in words) [4] | increase of proliferation rate of hiPSC cardiomyocytes ([5]; 144 hours (6 days)) | increase of proliferation rate of hiPSC cardiomyocytes ([5]; 336 hours (14 days)) [%] | nuclear Ki67 expression away from the scratch [6] | cell migration of hiPSC-CMs (in words) [7] | Cdk1 mRNA expression increase [3] | time course of effect on proliferation increase (in words) ([5]; peaking at 144 hours and disappearing by 336 hours) | nuclear Ki67 signal intensity close to the scratch [6] | EC50 [1] [nM]
1 | N[C@H]1C[C@@H](C(=O)N2CCSCC2)[C@H](c2ccc(Cl)cc2)C1 (relative stereo) [ZXR-807, rel-[(1R,2R,4R)-4-amino-2-(4-chlorophenyl)cyclopentyl]-thiomorpholino-methanone] | 27,4% | < 60,000 | 82.8 | promote the transcriptional activation | more moderately increased | 20-28% | 40 | increased | activate cell migration | – | – | – | –
2 | Cl.N[C@H]1C[C@@H](C(=O)N2CCOCC2)[C@H](c2ccc(Cl)cc2)C1 (relative stereo) [ZXR-081, rel-[(1R,2R,4R)-4-amino-2-(4-chlorophenyl)cyclopentyl]-morpholino-methanone hydrochloride] | 36,6% | < 60,000 | 177 | – | – | 20-28% | – | increased | activate cell migration | about 3 fold | transitory effect | significantly increased | –
3 | CC(=O)N[C@H]1C[C@@H](C(=O)N2CCOCC2)[C@H](c2ccc(Cl)cc2)C1 (relative stereo) [ZXR-090, rel-N-[(1R,3R,4R)-3-(4-chlorophenyl)-4-(morpholine-4-carbonyl)cyclopentyl]acetamide] | 26,6% | 200-300 | 62.8 | – | more moderately increased | – | – | – | activate cell migration | about 3 fold | – | – | 0.128
4 | CC(C)N(C)C(=O)[C@@H]1C[C@H](N)C[C@H]1c1ccc(Cl)cc1 (relative stereo) [ZXR-810, rel(1R,2R,4R)-4-amino-2-(4-chlorophenyl)-N-isopropyl-N-methyl-cyclopentanecarboxamide] | 26.5% | 200-300 | 62.8 | promote the transcriptional activation | more moderately increased | 20-28% | 40 | increased | activate cell migration | – | – | – | 0.62
